Paper PMC7406860, “Redox Imbalance and Oxidative DNA Damage During Isoniazid Treatment of HIV-Associated Tuberculosis: A Clinical and Translational Pharmacokinetic Study” (Frontiers in Pharmacology, 2020)
Read-outs that look alike come from different tables or passages of the source.

What was measured:
[1] = Clinical parent-metabolite pharmacokinetic study, plasma exposures after oral isoniazid; assay type: in vivo, human (TB patients); details: for AUC(0-t): human
Procedure: The parent-metabolite clinical pharmacokinetic study was approved by the Institutional Review Board of Rutgers University, Newark (protocol #20170001150). We performed intensive pharmacokinetic sampling for drug and metabolite concentrations in 10 TB patients (4 latent infection patients and 6 active TB patients) treated with isoniazid, in order to identify the relevant metabolite concentrations for subsequent pre-clinical experiments. After an overnight fast, patients were dosed with oral isoniazid (300 mg). A pre-dose blood draw was performed, with additional blood draws at 1, 2, 4, 6, and 8 h after dosing. Following centrifugation, plasma samples were stored at -80C until shipment to Alturas Analytics (Moscow, ID) for analysis. […] Noncompartmental pharmacokinetic analysis was performed to determine area under the concentration-versus-time curve (AUC), extrapolated over a 24-h dosing interval according to the slope defined in the elimination phase.

[2] = system: HepG2 cells; experiment: CometChip imaging of cellular DNA damage; assay type: cell-based, human; details: HepG2, 10 µM, 1 week; as compared to isoniazid
Procedure: (§1) The human liver carcinoma cell line, HepG2, is highly differentiated and is often used to screen the cytotoxicity potential of new chemical entities early in drug development ([Gerets et al., 2012]). HepG2 cells were cultured in Dulbecco’s modified Eagle’s medium (DMEM) supplemented with 10% fetal bovine serum (FBS), 100 U/ml penicillin, 100 μg/ml streptomycin, and 2mM L-glutamine, unless otherwise stated. Cells were continuously incubated at 37°C in a humidified 5% CO2/95% air environment and plated in a 12-well plate at 4x10^5 cells/well, over a duration of 24 h prior to compound exposure. Compound stocks dissolved in water were freshly made each exposure day. Cellular supernatant was replaced with 2 ml of culture media containing 10 µM of compound and left to incubate until 90% confluency was reached. Cell passages were conducted every 3 days under continual exposure to the designated compound for the indicated time period. Cellular supernatant was collected at each passage, clarified, aliquoted, and stored at -80°C for future analysis. Treated cells and supernatants were then examined for markers of cytotoxicity, mitochondrial toxicity, and oxidative DNA damage as described below.
Cells treated for 1 week with 10 µM of compound were plated onto a CometChip (Trevigen) at 2x10^5 cells/ml in a single cell suspension ([Ge et al., 2014]). Cells were incubated on the chip for 60 min at 37°C. The plate was then gently washed with PBS and coated with 1% low melting agarose. After the agarose was solidified by cooling at 4°C, the plate was washed with pre-chilled non-activated alkaline lysis buffer (2.5 M NaCl, […] Na2EDTA, 10mM Tris, pH 10). The chip was lysed overnight at 4°C by submerging the chip in the alkaline lysis buffer containing 1% Triton-X. The plate was then washed with PBS and placed in an electrophoresis chamber filled with pre-chilled alkaline electrophoresis buffer (2mM Na2 EDTA, 300 mM NaOH). Following a 40 min incubation at 4°C to allow for alkaline unwinding, electrophoresis was carried out at 80 volts for 30 min at 4°C. […]

[3] = system: HepG2 cells; experiment: Mitochondrial membrane integrity (TMRM); assay type: cell-based, human; details: HepG2, 10 µM, 28 days of exposure
Procedure: as §1, with “Treated cells and supernatants were then examined for markers of cytotoxicity, mitochondrial toxicity, and oxidative DNA damage as described below.” left out
To assess mitochondrial membrane integrity, black 96-well polystyrene clear bottom plates were coated with 50 µg/ml of poly-d-lysine for 1 h at 37°C. […] Following three washes with PBS, fluorescent intensity at 488nmEx/570nmEm was measured on a Synergy H1 Hybrid Multi-Mode Reader (BioTek).

[4] = system: HepG2 cells; experiment: 8-OHdG in cellular supernatant (competition ELISA); assay type: cell-based, human; details: HepG2, 10 µM, 28 days exposure
Procedure: as §1
Determination of 8-OHdG content in cellular supernatant was assed using an in-house competition ELISA. […] Absorbance at 405 nm was then measured on a Synergy H1 Hybrid Multi-Mode Reader (BioTek).

[5] = system: HepG2 cells; experiment: Immunofluorescence for γ-H2AX; assay type: cell-based, human; details: HepG2, 10 µM, 1-week exposure period; compared among the four compounds
Procedure: as §1
H2Ax is a core histone protein found in the nucleosome, and the phosphorylation of H2Ax is a marker of DNA damage caused by ROS. […]

[6] = system: HepG2 cells; experiment: Free thiol availability assay (ThiolTracker Violet), glutathione depletion; assay type: cell-based, human; details: HepG2, 10 µM, 28-day exposure period
Procedure: as §1, with “Cellular supernatant was collected at each passage, clarified, aliquoted, and stored at -80°C for future analysis. Treated cells and supernatants were then examined for markers of cytotoxicity, mitochondrial toxicity, and oxidative DNA damage as described below.” left out
By serving as targets of ROS, thiols provide the cellular defense system against oxidative stress. […] Cellular glutathione depletion was quantified in a free thiol availability assay ([Mandavilli and Janes, 2010]). […] Following a 30 min incubation at 37°C, cells were washed three times with D-PBS +C/M. Fluorescent intensity at 404nmEx/526nmEm was measured on a Synergy H1 Hybrid Multi-Mode Reader (BioTek).

[7] = system: HepG2 cells; experiment: ATP production (Mitochondrial ToxGlo Assay); assay type: cell-based, human; details: HepG2, 10 µM, 28 days of treatment
Procedure: The human liver carcinoma cell line, HepG2, is highly differentiated and is often used to screen the cytotoxicity potential of new chemical entities early in drug development ([Gerets et al., 2012]). HepG2 cells were cultured in Dulbecco’s modified Eagle’s medium (DMEM) supplemented with 10% fetal bovine serum (FBS), 100 U/ml penicillin, 100 μg/ml streptomycin, and 2mM L-glutamine, unless otherwise stated. Cells were continuously incubated at 37°C in a humidified 5% CO2/95% air environment and plated in a 12-well plate at 4x10^5 cells/well, over a duration of 24 h prior to compound exposure. Compound stocks dissolved in water were freshly made each exposure day. […]
Mitochondrial toxicity analysis was assayed using the Mitochondrial ToxGlo Assay (Promega, Madison, WI) following the manufacturer’s instructions. […] Following a 24-h incubation with compound, cytotoxicity was evaluated by the addition of a fluorogenic peptide substrate, bis-AAF-R110, to the cell supernatant for 30 min at 37°C. […] After the cells were allowed to incubate for 30 min at 37°C, fluorescence intensity was measured at 485nmEx/525nmEm. […] Cell lysis mixture was transferred to a 96-well flat solid white bottom plate and luminescence intensity was measured. Assays of fluorescence and luminescence activity were performed with a Synergy H1 Hybrid Multi-Mode Reader (BioTek, Winooski, VT).

[8] = system: HepG2 cells; experiment: Cytotoxicity (bis-AAF-R110 substrate, Mitochondrial ToxGlo Assay), long-term exposure; assay type: cell-based, human; details: HepG2, 10 µM, up to 28 days exposure
[9] = Linear regression of urine oxidative DNA damage (8-OHdG) on isoniazid pharmacokinetic exposures in HIV/TB patients; assay type: in vivo, human (HIV/TB patients, Botswana)
Description: We conducted a prospective cohort study of isoniazid pharmacokinetics among HIV/TB patients at 22 public clinics and Princess Marina Hospital in Gaborone, Botswana. The study population has been previously described ([Vinnard et al., 2017]). Eligibility criteria included citizens of Botswana, HIV infected adults (21 years of age or older) naïve to ART therapy, and newly diagnosed with pulmonary TB initiated on standard first-line TB regimens at weight-based dosing bands recommended in accordance with WHO guidelines. The study visit occurred between 5 and 28 days after initiation of first-line TB therapy that included isoniazid, prior to initiation of ART therapy.
After an overnight fast, the anti-TB drugs were directly administered. Blood samples (10 ml) were drawn at 0, 0.3, 0.9, 2.2, 4.5, and 8 h post-dosing, based on optimal sampling theory to estimate isoniazid pharmacokinetic parameters. Plasma isoniazid concentrations were measured with liquid chromatography-tandem mass spectrometry (LC-MS/MS) methods as previously described. The peak plasma concentration (Cmax) was obtained directly from the concentration-versus-time data), model-predicted isoniazid concentrations were used to estimate the area under the concentration-versus-time curve during a 24-h interval (AUC0-24). A spot urine sample (approximately 50 ml) was collected 4 h following anti-TB drug dosing and frozen at -80C until analysis. We measured urinary concentrations of 8-OHdG, a marker of oxidative DNA damage that is stable in cryopreserved urine samples, normalized to urine creatinine. The DNA Damage Competitive ELISA kit (ThermoFisher Scientific) was performed using a 1:4 dilution of urine-to-assay buffer. The manufacturer’s instructions were followed with one modification to the protocol. Antigen binding was performed overnight at 4°C with shaking in lieu of a 2-h incubation at room temperature. Each assay was performed in triplicate. Optical absorption was assessed using a Synergy H1 Hybrid Multimode Reader (BioTek). […]

[10] = 10 isoniazid-treated patients, oral isoniazid 300 mg, noncompartmental, extrapolated over 24-h dosing interval

## CC(=O)NN [Acetylhydrazine]
[1]; [10]
  Observed median (range) of plasma AUC0-24: 66.6 (43.2, 198.0) uM*hr
[2]
  DNA damage by CometChip microscopy: greater levels of DNA damage

## CC(=O)NNC(=O)c1ccncc1 [Acetylisoniazid]
[1]; in vivo, po, 300 mg
  AUC(0-t): 158 µM·h
[2]
  DNA damage by CometChip microscopy: greater levels of DNA damage

## NN [Hydrazine]
[1]; [10]
  Observed median (range) of plasma AUC0-24: 14.5 (3.0, 27.8) uM*hr
[2]
  DNA damage by CometChip microscopy: greater levels of DNA damage
[3]
  TMRM depletion (mitochondrial membrane integrity): greatest depletion
[4]
  8-OhDG levels in cell supernatant: highest increase
[5]
  γ-H2AX levels (double-stranded DNA breaks): greatest
[6]
  Thiol depletion (free thiol availability): greatest
[7]
  Cellular ATP production impairment: greatest impairment

## NNC(=O)c1ccncc1 [Isoniazid]
[8]
  Overall cytotoxicity: no appreciable cytotoxicity
[1]; plasma, 10 isoniazid-treated patients, oral isoniazid 300 mg, noncompartmental, extrapolated over 24-h dosing interval, read-out: Observed median (range) of plasma AUC0-24
  AUC(0-t): 60.5 µM·h
[9]; HIV/TB patients, first-line TB therapy
  Unadjusted regression coefficient (95% CI), isoniazid log AUC0-24 vs urine oxidative DNA damage: 0.474 (-0.272, 1.221)
[9]; HIV/TB patients, first-line TB therapy, urine 8-OHdG normalized to creatinine
  Unadjusted regression coefficient (95% CI), isoniazid Cmax (mg/L) vs urine oxidative DNA damage: 0.153 (-0.060, 0.366)
[9]; adjusted for body weight, creatinine clearance, GSTA2 genotype
  Adjusted regression coefficient (95% CI), isoniazid Cmax (mg/L) vs urine oxidative DNA damage: 0.241 (0.020, 0.462)
